Where “and” joins values, the source holds several entries; their conditions need not be identical. Equal entries are not always repeated.
How the values were obtained:
5-LOX = target: T1, 5-LOX (Homo sapiens, UniProt P09917); test: ABP-based ELISA assay with A549 cell lysate, 5-LOX; assay type: biochemical
T1 construct: the endogenous LOXs were captured on an anti‐LOX antibody precoated 96‐well plate; endogenous in cells; host or cells: A549 cell lysate
T1 sequence (P09917 1-674): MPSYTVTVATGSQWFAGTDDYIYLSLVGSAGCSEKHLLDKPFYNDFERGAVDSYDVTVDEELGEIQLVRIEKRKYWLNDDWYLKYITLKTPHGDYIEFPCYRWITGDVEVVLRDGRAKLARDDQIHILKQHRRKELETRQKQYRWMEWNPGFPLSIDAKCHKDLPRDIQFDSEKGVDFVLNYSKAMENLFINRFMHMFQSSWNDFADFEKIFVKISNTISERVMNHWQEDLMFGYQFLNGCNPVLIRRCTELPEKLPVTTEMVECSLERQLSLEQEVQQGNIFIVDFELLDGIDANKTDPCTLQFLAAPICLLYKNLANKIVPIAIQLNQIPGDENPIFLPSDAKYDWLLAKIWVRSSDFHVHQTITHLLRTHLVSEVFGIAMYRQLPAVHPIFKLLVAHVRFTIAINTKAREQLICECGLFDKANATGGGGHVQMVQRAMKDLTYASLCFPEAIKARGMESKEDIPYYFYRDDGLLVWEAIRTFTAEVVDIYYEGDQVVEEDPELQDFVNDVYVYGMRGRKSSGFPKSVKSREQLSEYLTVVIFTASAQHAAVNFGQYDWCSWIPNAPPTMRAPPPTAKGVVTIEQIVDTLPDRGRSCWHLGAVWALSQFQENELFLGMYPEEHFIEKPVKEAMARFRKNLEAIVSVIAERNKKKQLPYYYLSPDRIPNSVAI
Description: (§1) A549 cell lysate was treated with a serial dilution of the respective inhibitor. Subsequently, samples were labeled by treatment with 1 μM of Labelox B for 1 min. […] Data are mean±s.d., n≥3 independent experiments. […]
(§2) 1.6. Immunoblotting Analysis […]
(§3) 1.7. ABPP-based LOX inhibitor specificity validation
(§4) A549 cells were lysed by RIPA buffer supplemented with 1x PIC. After sonication and centrifugation, the supernatant was collected, and the protein concentration was determined by a Pierce BCA Protein Assay Kit (Thermo Fisher Scientific, USA). The lysates were then diluted with PBS to 300 ng/µl and stored in -20°C. To label endogenous LOXs with Labelox B under the competition condition, 180 µl diluted lysates were incubated with 200 µl different LOX inhibitor solution (in PBS) with desired concentrations for 18 min to inhibit LOXs activity. Later, 20 µl of a 20 µM Labelox B (in PBS) was added and incubated shortly for 2 min, followed by adding 50 µl of a 0.5 M EDTA to stop the labeling reaction. The reaction mixture was 450 µl in total. Inhibitors and Labelox B were absent in positive and […]
(§5) negative control, respectively. To detect the competition labeling of Labelox B among different LOXs, a high-binding 96-well plate (Greiner, #M4561) was coated with 5-LOX (#ab169755, Abcam), 12-LOX […]
(§6) (1:500 dilution in PBS) for overnight at 4°C. After washing triply with 0.05%PBST, the plate was blocked with 2% (w/v) BSA in PBST. Subsequently, 100 µl of each reaction mixture was added to the LOX-antibody-coated wells. There are four LOX antibodies used for coating. Therefore, in total, 400 µl mixture is needed for each reaction. After one hour of incubation, LOXs were pulled down by antibodies accordingly. Next, 100 µl of HRP-conjugated streptavidin (1:2000 dilution in PBS, Thermo Fisher Scientific, USA) was added to each well to detect the D04 labeled LOXs among precipitated LOXs. After washing with PBST, 100 µl of mixed HRP substrate reagent (R&D Systems, Minneapolis, USA) was added, and the colorizing reaction was stopped by adding 100 µl of 1M sulfuric acid. The absorbance at […]

15-LOX-2 = target: T2, 15-LOX-2 (Homo sapiens, UniProt O15296); test: ABP-based ELISA assay with A549 cell lysate, 15-LOX-2; assay type: biochemical
T2 construct: endogenous in cells; host or cells: A549 cell lysate
T2 sequence (O15296 1-676): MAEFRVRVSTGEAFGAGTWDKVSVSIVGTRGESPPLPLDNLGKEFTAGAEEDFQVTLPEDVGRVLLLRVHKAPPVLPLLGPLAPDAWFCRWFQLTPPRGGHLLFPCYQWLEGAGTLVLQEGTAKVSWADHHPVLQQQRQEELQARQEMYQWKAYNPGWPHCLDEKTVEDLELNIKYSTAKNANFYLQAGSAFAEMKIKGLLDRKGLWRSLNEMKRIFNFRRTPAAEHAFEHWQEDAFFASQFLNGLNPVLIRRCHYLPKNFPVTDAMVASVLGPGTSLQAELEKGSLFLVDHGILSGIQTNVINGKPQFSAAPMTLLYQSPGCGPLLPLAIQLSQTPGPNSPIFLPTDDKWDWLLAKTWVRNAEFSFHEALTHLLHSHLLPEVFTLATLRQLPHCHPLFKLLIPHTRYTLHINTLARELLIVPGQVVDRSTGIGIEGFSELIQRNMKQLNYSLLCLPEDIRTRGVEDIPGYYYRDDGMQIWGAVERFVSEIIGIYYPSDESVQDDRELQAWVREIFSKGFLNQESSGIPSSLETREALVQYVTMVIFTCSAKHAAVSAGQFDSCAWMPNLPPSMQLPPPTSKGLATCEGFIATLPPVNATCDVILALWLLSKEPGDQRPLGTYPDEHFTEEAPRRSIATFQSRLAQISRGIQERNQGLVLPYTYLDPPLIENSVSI
Description: as §1, §2, §3, §4
(1 picture or pasted object on this page, not shown here) […]
as §5
as §6, with “After washing with PBST, 100 µl of mixed HRP substrate reagent (R&D Systems, Minneapolis, USA) was added, and the colorizing reaction was stopped by adding 100 µl of 1M sulfuric acid.” left out

| SMILES | HillSlope Value (5-LOX) | IC50 (5-LOX; 1 μM Labelox B) | HillSlope Value (15-LOX-2) | IC50 (15-LOX-2; 1 μM Labelox B) |
| --- | --- | --- | --- | --- |
| c1ccc2c(c1)SCc1c-2[nH]c2ccccc12 [PD146176] | -0.99 | ~17 µM and 14.8 µM | -0.88 | > 100 µM and 123 µM |
| O=c1cc(-c2ccccc2)oc2cc(O)c(O)c(O)c12 [Baicalein] | -0.26 |  | -0.34 |  |

Source: article PMC8518382, “Identification of a Bromodomain‐like Region in 15‐Lipoxygenase‐1 Explains Its Nuclear Localization” (Angewandte Chemie (International Ed. in English), 2021)
